PubChem BioAssay (NCI)
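Here, GI50 denotes the concentration required for 50% inhibition of growth. Definition used: TGI = concentration required for complete inhibition of growth.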

Experiments:
Test in all cases: growth of human tumour cells (NCI), 384-well format
[1] = system: UACC-257 melanoma
[2] = system: OVCAR-4 ovarian
[3] = system: CAKI-1 renal
[4] = system: IGROV1 ovarian
[5] = system: UACC-62 melanoma
[6] = system: COLO 205 colon
[7] = system: NCI-H226 lung
[8] = system: 786-0 renal
[9] = system: EKVX NSCLC
[10] = system: RXF 393 renal
[11] = system: HT29 colon
[12] = system: MDA-MB-468 breast
[13] = system: SR leukemia
[14] = system: HS 578T breast
[15] = system: HOP-92 NSCLC
[16] = system: SK-MEL-2 melanoma
[17] = system: SK-OV-3 ovarian
[18] = system: T-47D breast
[19] = system: ACHN renal
[20] = system: UO-31 renal
[21] = system: SK-MEL-5 melanoma
[22] = system: NCI-H322M lung
[23] = system: OVCAR-3 ovarian
[24] = system: HL-60(TB) leukemia
[25] = system: KM12 colon
[26] = system: A549 NSCLC
[27] = system: MDA-MB-231 breast
[28] = system: NCI-H460 NSCLC
[29] = system: NCI-H23 lung
[30] = system: HOP-62 NSCLC
[31] = system: OVCAR-5 ovarian
[32] = system: HCT-116 colon
[33] = system: TK-10 renal
[34] = system: DU-145 prostate
[35] = system: MOLT-4 leukemia
[36] = system: MALME-3M melanoma
[37] = system: NCI-H522 lung
[38] = system: SF-295 CNS
[39] = system: SF-539 CNS
[40] = system: PC-3 prostate
[41] = system: OVCAR-8 ovarian
[42] = system: M14 melanoma
[43] = system: A498 renal
[44] = system: MCF7 breast
[45] = system: U251 glioblastoma
[46] = system: SW-620 colon
[47] = system: K-562 leukemia
[48] = system: SNB-19 CNS
[49] = system: SK-MEL-28 melanoma
[50] = system: MDA-MB-435 melanoma
[51] = system: SN12C renal
[52] = system: BT-549 breast
[53] = system: HCT-15 colon
[54] = system: SF-268 CNS
[55] = system: SNB-75 CNS
[56] = system: HCC-2998 colon
[57] = system: LOX IMVI melanoma
[58] = system: NCI/ADR-RES ovarian
[59] = system: RPMI-8226 leukemia

Cn1cc(-c2ccc(CNc3cc(-c4cnc5cc(OCCCN6CCCC6)ccn45)ncn3)cc2)cn1
GI50 [1]: 1.53 µM
TGI [1]: 2.87 µM
GI50 [2]: 1.55 µM
TGI [2]: 2.91 µM
GI50 [3]: 1.86 µM
TGI [3]: 3.26 µM
GI50 [4]: 1.88 µM
TGI [4]: 3.34 µM
GI50 [5]: 1.83 µM
TGI [5]: 3.23 µM
GI50 [6]: 2.01 µM
TGI [6]: 3.45 µM
GI50 [7]: 1.69 µM
TGI [7]: 3.06 µM
GI50 [8]: 1.54 µM
TGI [8]: 2.89 µM
GI50 [9]: 1.67 µM
TGI [9]: 3.06 µM
GI50 [10]: 1.53 µM
TGI [10]: 2.87 µM
GI50 [11]: 0.969 µM
TGI [11]: 2.15 µM
GI50 [12]: 1.8 µM
TGI [12]: 3.21 µM
GI50 [13]: 1.69 µM
TGI [13]: 3.07 µM
GI50 [14]: 1.58 µM
TGI [14]: 2.93 µM
GI50 [15]: 1.84 µM
TGI [15]: 3.25 µM
GI50 [16]: 1.84 µM
TGI [16]: 3.24 µM
GI50 [17]: 1.8 µM
TGI [17]: 3.21 µM
GI50 [18]: 1.9 µM
TGI [18]: 3.33 µM
GI50 [19]: 1.81 µM
TGI [19]: 3.21 µM
GI50 [20]: 1.75 µM
TGI [20]: 3.14 µM
GI50 [21]: 1.49 µM
TGI [21]: 2.82 µM
GI50 [22]: 1.92 µM
TGI [22]: 3.57 µM
GI50 [23]: 1.84 µM
TGI [23]: 3.25 µM
GI50 [24]: 1.56 µM
TGI [24]: 2.9 µM
GI50 [25]: 1.85 µM
TGI [25]: 3.29 µM
GI50 [26]: 1.82 µM
TGI [26]: 3.23 µM
GI50 [27]: 1.61 µM
TGI [27]: 2.97 µM
GI50 [28]: 1.32 µM
TGI [28]: 2.62 µM
GI50 [29]: 11.3 µM
TGI [29]: 23.5 µM
GI50 [30]: 1.63 µM
TGI [30]: 3 µM
GI50 [31]: 1.69 µM
TGI [31]: 3.09 µM
GI50 [32]: 1.63 µM
TGI [32]: 3.02 µM
GI50 [33]: 1.78 µM
TGI [33]: 3.18 µM
GI50 [34]: 1.82 µM
TGI [34]: 3.34 µM
GI50 [35]: 1.5 µM
TGI [35]: 2.83 µM
GI50 [36]: 1.83 µM
TGI [36]: 3.23 µM
GI50 [37]: 2.09 µM
TGI [37]: 3.53 µM
GI50 [38]: 1.81 µM
TGI [38]: 3.22 µM
GI50 [39]: 1.18 µM
TGI [39]: 2.41 µM
GI50 [40]: 1.7 µM
TGI [40]: 3.28 µM
GI50 [41]: 1.72 µM
TGI [41]: 3.11 µM
GI50 [42]: 1.84 µM
TGI [42]: 3.24 µM
GI50 [43]: 1.78 µM
TGI [43]: 3.18 µM
GI50 [44]: 1.36 µM
TGI [44]: 2.67 µM
GI50 [45]: 1.79 µM
TGI [45]: 3.2 µM
GI50 [46]: 1.69 µM
TGI [46]: 3.09 µM
GI50 [47]: 1.5 µM
TGI [47]: 2.85 µM
GI50 [48]: 1.74 µM
TGI [48]: 3.41 µM
GI50 [49]: 1.82 µM
TGI [49]: 3.22 µM
GI50 [50]: 1.77 µM
TGI [50]: 3.17 µM
GI50 [51]: 1.77 µM
TGI [51]: 3.16 µM
GI50 [52]: 1.62 µM
TGI [52]: 2.98 µM
GI50 [53]: 1.77 µM
TGI [53]: 3.2 µM
GI50 [54]: 1.85 µM
TGI [54]: 3.28 µM
GI50 [55]: 1.79 µM
TGI [55]: 3.19 µM

CCc1c[nH]c2ncnc(N3CC[C@@](N)(CNC(=O)c4ccc(F)cc4F)C3)c12
GI50 [1]: 16.5 µM
TGI [1]: 37 µM
GI50 [2]: > 100 µM
TGI [2]: > 100 µM
GI50 [56]: 18.8 µM
TGI [56]: > 100 µM
GI50 [3]: 16.5 µM
TGI [3]: > 100 µM
GI50 [4]: 6.09 µM
TGI [4]: 32.4 µM
GI50 [5]: 18.9 µM
TGI [5]: 59.2 µM
GI50 [6]: 15.8 µM
TGI [6]: 41.5 µM
GI50 [7]: 20.2 µM
TGI [7]: > 100 µM
GI50 [9]: 28.6 µM
TGI [9]: > 100 µM
GI50 [10]: 27.8 µM
TGI [10]: > 100 µM
GI50 [11]: 29.1 µM
TGI [11]: > 100 µM
GI50 [12]: 13.9 µM
TGI [12]: 55.5 µM
TGI [13]: 0.816 µM
GI50 [14]: 14.9 µM
TGI [14]: 33.7 µM
GI50 [15]: 28.6 µM
TGI [15]: > 100 µM
GI50 [17]: 13.6 µM
TGI [17]: > 100 µM
GI50 [18]: 35.3 µM
TGI [18]: > 100 µM
GI50 [19]: 15.5 µM
TGI [19]: 50 µM
GI50 [21]: 11 µM
TGI [21]: 28.4 µM
GI50 [57]: 18.9 µM
TGI [57]: 47.3 µM
GI50 [22]: 22 µM
TGI [22]: 79.4 µM
GI50 [23]: 33.8 µM
TGI [23]: > 100 µM
GI50 [24]: 15.7 µM
TGI [24]: 29.4 µM
GI50 [25]: 4.05 µM
TGI [25]: > 100 µM
GI50 [26]: 20.8 µM
TGI [26]: 50.7 µM
GI50 [27]: 35.6 µM
TGI [27]: > 100 µM
GI50 [28]: 11.3 µM
TGI [28]: > 100 µM
GI50 [29]: 14.5 µM
TGI [29]: 39.9 µM
GI50 [30]: 20 µM
TGI [30]: 93 µM
GI50 [31]: 17.1 µM
TGI [31]: 76 µM
GI50 [32]: 20.5 µM
TGI [32]: > 100 µM
GI50 [33]: 13.5 µM
TGI [33]: 42.8 µM
GI50 [34]: 23.2 µM
TGI [34]: 94.1 µM
GI50 [35]: 5.23 µM
TGI [35]: 20.3 µM
GI50 [36]: 14.2 µM
TGI [36]: 37.5 µM
GI50 [37]: 16.8 µM
TGI [37]: 47.4 µM
GI50 [38]: 29.1 µM
TGI [38]: > 100 µM
GI50 [39]: 11.9 µM
TGI [39]: > 100 µM
GI50 [40]: 22.1 µM
TGI [40]: > 100 µM
GI50 [41]: 41.3 µM
TGI [41]: > 100 µM
GI50 [42]: 28.4 µM
TGI [42]: > 100 µM
GI50 [43]: 2.72 µM
TGI [43]: 19.3 µM
GI50 [44]: 12.7 µM
TGI [44]: > 100 µM
GI50 [45]: 37.4 µM
TGI [45]: > 100 µM
GI50 [58]: 89 µM
TGI [58]: > 100 µM
GI50 [48]: 61.9 µM
TGI [48]: > 100 µM
GI50 [49]: 25.5 µM
TGI [49]: > 100 µM
GI50 [50]: 31.4 µM
TGI [50]: > 100 µM
GI50 [51]: 23.3 µM
TGI [51]: 88.5 µM
GI50 [59]: 14.2 µM
TGI [59]: 54.7 µM
GI50 [52]: 10.9 µM
TGI [52]: 24.9 µM
GI50 [53]: 32 µM
TGI [53]: > 100 µM
GI50 [54]: 48.3 µM
TGI [54]: > 100 µM
GI50 [55]: 31.3 µM
TGI [55]: > 100 µM
